Results on nine molecules are retold here after publication PMC4142842, “Synthesis of isoprenoid bisphosphonate ethers through C–P bond formations: Potential inhibitors of geranylgeranyl diphosphate synthase” (Beilstein Journal of Organic Chemistry, 2014).

As usually defined, the IC50 is the concentration needed to halve the response being measured.

Read-outs that look alike come from different tables or passages of the source.

The test system of one test is K562 cells. Also on record: method as in PMID 16517172. As to conditions: micromolar DGBP; cited from earlier work.
Test [1] addresses T1, farnesyl diphosphate synthase (FDPS) (Homo sapiens, UniProt P14324).
T1 construct: gift of Dr. James E. Dunford (not a commercial vendor)
T1 sequence (P14324 1-419): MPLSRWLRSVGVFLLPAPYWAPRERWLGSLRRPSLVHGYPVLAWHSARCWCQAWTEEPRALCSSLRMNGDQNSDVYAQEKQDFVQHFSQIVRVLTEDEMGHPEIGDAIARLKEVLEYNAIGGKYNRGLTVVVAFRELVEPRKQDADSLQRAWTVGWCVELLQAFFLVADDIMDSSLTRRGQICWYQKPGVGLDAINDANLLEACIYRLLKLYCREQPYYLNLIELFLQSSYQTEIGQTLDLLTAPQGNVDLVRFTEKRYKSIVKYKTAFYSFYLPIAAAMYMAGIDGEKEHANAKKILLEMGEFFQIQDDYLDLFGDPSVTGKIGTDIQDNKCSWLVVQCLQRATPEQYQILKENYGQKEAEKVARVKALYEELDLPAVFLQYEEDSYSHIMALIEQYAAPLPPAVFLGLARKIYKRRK
Also noted: method as in PMID 17208200. As to conditions: earlier enzyme assays; cited from earlier work.

The target in test [2] is T1, farnesyl diphosphate synthase (FDPS). Put plainly: FDPS enzyme assay (14C-IPP incorporation, GPP substrate). Particulars: for IC50: 10 µM GPP, 10 min preincubation. It is filed as biochemical.
In test [3] the target is T2, geranylgeranyl diphosphate synthase (GGDPS) (Homo sapiens, UniProt O95749).
T2 construct: gift of Dr. James E. Dunford (not a commercial vendor)
T2 sequence (O95749 1-300): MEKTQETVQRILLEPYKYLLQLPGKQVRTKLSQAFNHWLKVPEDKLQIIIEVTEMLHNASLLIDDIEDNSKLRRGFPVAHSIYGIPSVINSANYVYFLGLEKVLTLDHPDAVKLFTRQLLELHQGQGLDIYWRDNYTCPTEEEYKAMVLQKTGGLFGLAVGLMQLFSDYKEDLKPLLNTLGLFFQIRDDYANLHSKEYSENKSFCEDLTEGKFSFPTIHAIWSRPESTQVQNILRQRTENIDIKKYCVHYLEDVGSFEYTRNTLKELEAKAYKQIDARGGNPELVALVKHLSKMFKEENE
Put plainly: GGDPS enzyme assay (14C-IPP incorporation, FPP substrate). In kind it is biochemical. As to conditions: for IC50 / activity against GGDPS (in words): enzyme assay; for IC50: 10 µM FPP, 10 min preincubation.

In test [4] the target is T2, geranylgeranyl diphosphate synthase (GGDPS). Particulars: previously reported limited activity; cited from earlier work.

For `CC(C)=CCC/C(C)=C/CC(C/C=C(\C)CCC=C(C)C)(P(=O)(O)O)P(=O)(O)O` [Compound 5, digeranyl bisphosphonate], the “Rap1a geranylgeranylation (Western blot)” value in the test with K562 cells was “only partially modified”. Also, the IC50 in test [1] and in test [2] was over 10000 nM in each case.

In the case of `CC(C)=CCC/C(C)=C/COC(C/C=C(\C)CCC=C(C)C)(P(=O)(O)O)P(=O)(O)O` [Compound 6], the IC50 in test [3] was 408 nM; in test [2], over 10000 nM.

With `CC(C)=CCC/C(C)=C/COC(P(=O)(O)O)P(=O)(O)O` [Compound 11], the 50% inhibitory concentration (IC50) in test [3] is 238 nM; in test [2] it was over 10000 nM.

Take `CC(C)=CCOC(P(=O)(O)O)P(=O)(O)O` [Compound 14]: the “activity against GGDPS (in words)” value in test [3] is reported as “little or no activity”. Besides, the “activity against FDPS (in words)” value in test [2] is on record as “little or no activity”.

As to `CC(C)=CCC/C(C)=C/CC(OCC=C(C)C)(P(=O)(O)O)P(=O)(O)O` [Compound 16], the results for the 50% inhibitory concentration (IC50) in test [3] and in test [2] were 684 nM and 830 nM, respectively.

Take `CC(C)=CCOC(CC=C(C)C)(P(=O)(O)O)P(=O)(O)O` [Compound 18]: in test [3], the “activity against GGDPS (in words)” value is recorded as “little or no activity” and the IC50 turned out to be 4750 nM. Besides, in test [2], the “activity against FDPS (in words)” value is reported as “little or no activity” and the IC50 is 5260 nM.

In the case of `CC(C)=CCC/C(C)=C/COC(CC=C(C)C)(P(=O)(O)O)P(=O)(O)O` [Compound 20], the 50% inhibitory concentration (IC50) in test [3] is 274 nM; in test [2] it was over 10000 nM.

In turn, `CC(C)=CCC/C(C)=C/CC(OCC[C@@H](C)CCC=C(C)C)(P(=O)([O-])[O-])P(=O)([O-])[O-].[Na+].[Na+].[Na+].[Na+]` [Compound 24] yielded an IC50 in test [3] of 82 nM. In test [3] (ratio of GGDPS IC50 values), the “fold more potent than the DGBP control (5), GGDPS” value is ~ 2.6 fold. For the same molecule, in test [2], the “activity against FDPS (in words)” value is recorded as “no activity” and the half-inhibitory concentration (IC50) is over 10000 nM.

Consider `CC(C)=CCCC(C)=CCC(P(=O)(O)O)P(=O)(O)O` [geranyl bisphosphonate], for which the “activity previously reported (GGDPS inhibition)” value in test [4] was 10 µM.
